In patent US20240293441A1, “NEW THERAPEUTIC USE OF TYPE 2 IODOTHYRONINE DEIODINASE (D2) INHIBITORS” (MATERIAS S.R.I, priority 2021, published 2024):

How the values were obtained:
[1] = system: DysE17 flies; assay: Climbing assay (negative geotaxis) in dystrophic Drosophila fed amiodarone; format: in vivo, Drosophila melanogaster
Source text: The genetic loss-of-function homozygous Drosophila mutant for dystrophin (dys), DysE17 (hiips://flybase.org/reports/FBal0241311.html) was employed as a Duchenne muscular dystrophy model, which carries a point mutation on chromosome 3 (location: 92A10, 3R:19,590,458 . . . 19,590,458) causing a nucleotide change C19590458T and consequently the amino acid change Q2807term|Dys-PA. This is a termination codon determining full-length dys protein to be abnormally shortened. As control, the wild-type Oregon-R strain was used.
The adult wild-type animals and mutant fruit flies were treated with amiodarone at increasing concentrations, supplemented in the food for 30 days.
Eclosed Oregon-R and homozygous DysE17 Drosophila (1-2 days of adult age) were placed in vials (10-15 animals/vials) and reared on 4-5 ml of either the standard medium or medium supplemented with amiodarone at increasing doses (100 nM, 1 μM, 10 μM, 20 μM, and 50 μM). Food was replaced each 5 days. Amiodarone-supplemented diets were freshly prepared by mixing amiodarone with appropriate amounts of standard food just before the administration to animals. At least 3 vials per group were prepared within each experiment. Each experiment was repeated 3 or more times: in total, a minimum of 60 animals per experimental condition was analysed.
• Oregon-R receiving vehicle (DMSO 1:1000); • DysE17 flies receiving vehicle (DMSO 1:1000); • DysE17 flies receiving 100 nM amiodarone; • DysE17 flies receiving 1 μM amiodarone; • DysE17 flies receiving 10 μM amiodarone; • DysE17 flies receiving 20 μM amiodarone; • DysE17 flies receiving 50 μM amiodarone.
Flies were treated for 30 days (treatments ended when animals reached 30 days of adult age), with food renewal each 5 days.
Geotaxis was assessed using a climbing assay (negative geotaxis reflex in opposition to the Earth's gravity). A horizontal line was drawn 15 cm above the bottom of the vial. After a 10 minutes rest period, the flies were tapped to the bottom of the vials: all flies were forced to start climbing (vertical walking). The number of flies that climbed up to the 15 cm mark after 60 seconds was recorded as the percentage success rate. A camera recorded fly movement during the experiment. Each trial was performed three times, at one-minute intervals, and the results averaged. Climbing performance was assessed each 5 days starting from day 1-2 of adult age (just after eclosion) and ending at 30 days.
For the validation study, the climbing efficiency and muscle structure of adult wild-type animals and DysE17 mutants were analyzed after food supplementation with amiodarone at increasing concentrations for 0-30 days (geotaxis assay).

[2] = system: C26-injected mice; assay: C26 tumor-induced cancer cachexia mouse model with oral amiodarone; format: in vivo
Experimental: Murine colon 26 adenocarcinoma cells (C26) were cultured in DMEM containing 10% fetal bovine serum, 100 U/ml penicillin, and 100 μg/ml streptomycin. For in vivo inoculation, a single suspension of 7×10^6 cells in 100 μl of physiological saline was injected subcutaneously into the right flank of the BALB/c mice. The same volume of physiological saline was injected into the control groups.
In cachexia+/−Amiodarone experiments, mice were treated for 18 days with Amiodarone and were sacrificed 7 days post induced-cachexia. Amiodarone was given from […] (day 1 is the day of cells injection).
(§1) Mice (C57BL6 mice) were treated with 0.45 mg/ml Amiodarone (Sigma, A8423, St. Louis, MO, USA) (Bagchiet al., Circulation Research 1987; 60:621-625; Lee et al., Oncotarget, 2015; 6(40): 42976-42987) in drinking water ad libitum starting 1 week before the induced-denervation or cachexia, until sacrifice.
(§2) Preparation of amiodarone: 45 mg dissolved in 1 ml of water for 10 minutes at 80° C.
In tumor-induced cachexia mice models, mice were treated with oral amiodarone for 18 days (−7/+11 relative to C26 injection) (FIG. 10A). Matched group of amiodarone-treated and control mice were injected with C26 cells, and muscle wasting was monitored to different days following injection.

[3] = system: denervated mice; assay: Denervation (sciatic nerve transection) muscle wasting mouse model with oral amiodarone; format: in vivo
Experimental: Animals were anesthetized by a ketaminexylazine cocktail and a small incision ([…]) was made in the left tight skin. The sciatic nerve was exposed with the help of a small surgical hook and then cut before the separation of sciatic nerve branches. A small (2-5 mm) nerve section was removed to prevent re-innervation. Denervation was performed unilaterally, using the contralateral hindlimb as a negative control. Tissues were collected 2, 6, 12 or 15 days after denervation surgery.
In denervation+/−Amiodarone experiments, mice were treated for 13 days with Amiodarone and were sacrificed 5 days post induced-denervation (from day −7 up day+5 upon denervation).
as §1, §2
In denervation mice models, mice were treated with oral amiodarone for 13 days (from day −7 up day+5 upon denervation).

[4] = system: mice with full-thickness skin wounds; assay: Skin wound healing in rT3-treated mice; format: in vivo, mouse
Experimental: The back fur of mice was shaved and the skin was cleaned with 70% alcohol. The dorsal skin was pulled using forceps and two 8-mm full-thickness skin wounds were created along the midline using a sterile 8 mm circular biopsy punch by pressing through both layers of the skin pull. Skin wound healing was measured every 2-3 days by anesthetizing the animals and imaging the wounded area.
Excisional, full-thickness skin wounds were aseptically made on the dorsal skin by picking up a fold skin at the midline and using a sterile, disposable biopsy punch with a diameter of 8 mm to punch through the two layers of skin. In this manner, two wounds were made on each side of the midline at the same time. Each wound site was digitally photographed using the Nikon FX-35A at the indicated time intervals, and wound areas were determined on photographs using CellF*. Changes in wound areas were expressed as the percentage of the initial wound areas.
(§3) In vivo: mice (C56BL6 mice) were treated systemically with an i.v. injection of 100 μl of 30 ng/μl rT3 (Sigma Aldrich) or PBS vehicle control to consecutive 4 days.
In a similar setting, the present inventors also tested whether D2 inhibition positively affected wound regeneration in skin.

[5] = system: mice with CTX-injured tibialis anterior (TA) muscle; assay: Muscle regeneration after cardiotoxin (CTX) injury in rT3-treated mice; format: in vivo, mouse
Experimental: Animals were anesthetized by a ketaminexylazine cocktail, and 12,5 μl of 60 μg/ml CTX (Naja mossambica mossambica, Sigma-Aldrich) was injected into and along the length of the right tibialis anterior (TA) (Yan, 2003 J Biol Chem 278(10): 8826-8836) and 25 μl into gastrocnemius muscle. CTX was injected on different day from Tam.
The tibialis anterior (TA) muscles were dissected and fixed in isopentane in liquid nitrogen, and sliced into 7 μm sections. The cross-sectional area was analyzed and quantified using CellF*Olympus Imaging Software.
Dissected muscles were snap frozen in liquid nitrogen-cooled isopentane, sectioned (7 μm thick) and stained. For immunofluorescent staining, cells or section were fixed with 4% formaldehyde (PFA) and permeabilized in 0.1% Triton X-100, then blocked with 0.5% goat serum and incubated with primary antibody. Alexa Fluor™ 594/647-conjugated secondary antibody was used. Images were acquired with an IX51 Olympus microscope and the Cell*F software. For hematoxylin/eosin staining (H&E), sections were fixed for 15 min and placed in hematoxylin for 5 min followed washed, and 5 min in Eosin.
as §3
To therapeutically exploit the capacity of D2-depletion to activate stem cells and accelerate muscle tissue repair, mice were treated with oral reverse triiodothyronine (rT3, a specific D2-inhibitor) for 7 days (−5/+2 relative to CTX injury) (FIG. 7A).

[6] = system: pp6 cells; assay: TNFα-induced cell death (PARP immunoblot) in muscle cells with or without rT3; format: cell-based, mouse; conditions: TNFα 24 h; rT3 30 nM
Experimental: Primary muscle cultures (pp6) were isolated as described (Qu et al., 1998 J Cell Biol 142(5): 1257-1267) from the indicated mouse lines. Immortalized myoblasts (C2C12) were obtained from ATCC. Proliferating cells were cultured in 20% Fetal Bovine Serum Dulbecco's modified Eagle's medium at 37° C. with penicillin/streptomycin. Transient transfections were performed using Lipofectamine 2000 (Life Technologies) according to the manufacturer's instructions. Anti-MyoD (sc-304) and tubulin (sc-8035) antibodies were purchased from Santa Cruz Biotechnology. Anti-Pax7 antibody were from Developmental Studies Hybridoma Bank. Anti-PARP was from Cell Signaling Technology.
Total protein extracts from cells and tissues were run on a 10% sodium dodecyl sulfate-polyacrylamide gel electrophoresis gel and transferred to an Immobilon-P transfer membrane (Millipore, Billerica, MA). The membrane was then blocked with 5% nonfat dry milk in phosphate buffered saline, probed with the primary antibody, washed and incubated with horseradish peroxidase-conjugated donkey anti-rabbit or mouse immunoglobulin G secondary antibody (1:3000), and detected by chemiluminescence (Millipore). After extensive washing, the membrane was incubated with antitubulin-specific or ERK antibody (1:10,000; sc-8035, Santa Cruz, Dallas, TX) as loading control.
In vitro: Pp6 or C2C12 cells were treated with rT3 (30 nM) […]

[7] = TA muscle, 11 days after C26 cells injection, vs control
[8] = gastrocnemius, oral amiodarone 13 days (day −7 to +5 upon denervation), vs control
[9] = 7 days post-CTX, oral rT3 for 7 days (−5/+2 relative to CTX injury), vs control

`CCCCc1oc2ccccc2c1C(=O)c1cc(I)c(OCCN(CC)CC)c(I)c1` [Amiodarone (AMIO), Amiodarone] was tested, and the “functional deficits vs untreated Dys animals” value ([1]; after 25-30 days of treatment) was “the same functional deficits”, the “damaged animals (climbing decay)” value ([1]; amiodarone 10 μM for 15 days, untreated Dys 35%) was 18% and the “damaged animals (climbing decay)” value ([1]; amiodarone 10 μM for 20 days, untreated Dys 55%) was 32%. For the same molecule, the “most effective concentration on fly mobility” value ([1]; doses 100 nM to 50 μM in food, 30 days) was 10 µM, the “muscle structure of functionally recovered muscles” value ([1]; dystrophic mutant flies, chronic amiodarone) was “still compromised at structural level” and the “effect on climbing decay of dystrophic animals” value ([1]; higher concentrations, 20-50 μM) was “did not alter the climbing decay”. The “effect on fly mobility” value ([1]; increasing doses from 100 nM to 10 μM) was “dose-dependent beneficial effect”, the “effect on mobility at shorter times” value ([1]; treatment shorter than 15 days (10 days)) was “no effects” and the “Atrogin-1 mRNA expression” value [2, 7] was “potently down-regulated”. For the same molecule, the “MuRF-1 mRNA expression” value [2, 7] was “potently down-regulated”, the survival ([2]; after C26 cells injection, control mice about 12.7 days) was greater than 27 days and the tumor weight ([2]; amiodarone-treated vs control mice, 11 days after C26 cells injection) was “no significant effects”. For the same molecule, the “muscle wasting (body, heart, TA and GC weight)” value ([2]; oral amiodarone for 18 days (−7/+11 relative to C26 injection), vs control) was “preserved from massive muscle wasting”, the “muscle wasting (gastrocnemius muscle mass)” value ([3]; after denervation, oral amiodarone 13 days) was “preserved from massive muscle wasting” and the “Atrogin-1 mRNA expression” value [3, 8] was “potently down-regulated”. The “MuRF-1 mRNA expression” value [3, 8] was “potently down-regulated”.

For `N[C@@H](Cc1ccc(Oc2cc(I)c(O)c(I)c2)c(I)c1)C(=O)O` [Reverse triiodothyronine (rT3), 3,3′5′-triiodothyronine], the “regrowth of hair in the shaved area” value ([4]; later time points following skin wounding (28 days post-injury)) was “more complete regrowth of hair”, the wound repair ([4]; rT3-treated mice vs control) was “more rapidly and efficiently than control” and the “fiber size (cross-sectional area)” value [5, 9] was “smaller than control”. The “number of fibers (H&E)” value [5, 9] was “increased number of fibers”, the “fiber size (cross-sectional area)” value ([5]; 21 days after injury, rT3 for 7 days, vs control) was “larger fibers” and the “Pax7+/EdU+ cells” value ([5]; TA sections, rT3 treated mice vs control) was “increased than control”. The TNFα-induced apoptosis [6] was “protected from apoptosis”.
